Patent publication US10040748B2, “4-hydroxybutyric acid analogs” (Concert Pharmaceuticals, Inc., priority 2011, dated 2018)
Where a name gives a salt, the structure may show the parent alone.

What was measured:
[1] = In vivo pharmacokinetic studies in rats (IV and PO dosing, plasma); conditions: rat; for AUC0-∞ / CL / Vz / Cmax / Tmax: mean of N=4; for % F: 200 mg/kg PO vs IV, printed in AUC0-∞ column
Protocol: The pharmacokinetics of exemplary compounds was determined by comparison with 4-hydroxybutyric acid by dosing the compounds in rats according to the following study design and sampling procedure.

[2] = humans; cited from earlier work
[3] = 200 mg/kg IV, mean of N=4, Cmin at 2 hr
[4] = 200 mg/kg IV, mean of N=4, calculated up to 2 hr
[5] = 200 mg/kg PO, mean of N=4, Cmin at 4 hr
[6] = 200 mg/kg PO, mean of N=4, calculated up to 4 hr

[2H]C([2H])(O)CC([2H])([2H])C(=O)[O-].[Na+] [IV-b, sodium salt, Sodium 2,2,4,4-d4-4-hydroxybutanoate]
AUC0-∞ ([1]; 200 mg/kg IV): 651 µg·h/mL | CL ([1]; 200 mg/kg IV): 5 mL/min/kg | Vz ([1]; 200 mg/kg IV): 0.3 L/kg | Cmin [1, 3]: 76000 ng/mL | t1/2 [1, 4]: 37.8 min | % F [1]: 40% | AUC0-∞ ([1]; 200 mg/kg PO): 260 µg·h/mL | Cmax ([1]; 200 mg/kg PO): 151000 ng/mL | Tmax ([1]; 200 mg/kg PO): 37.8 min | Cmin [1, 5]: 5000 ng/mL | t1/2 [1, 6]: 56.4 min | pharmacokinetics relative to 4-hydroxybutyric acid, sodium salt ([1]; 200 mg/kg, comparison of AUC0-∞ and t1/2): considerably increased

O=C(O)CCCO [4-hydroxybutyric acid, sodium salt, sodium salt of 4-hydroxybutyric acid, reference compound]
concentration at 2 hr ([1]; plasma, 200 mg/kg IV, mean of N=4, Cmin at 2 hr): 8000 ng/mL | Cmin [1, 5]: 2000 ng/mL | half life [2]: 30 to 60 min

[2H]C([2H])(CCO)C(=O)[O-].[Na+] [Sodium 2,2-d2-4-Hydroxybutanoate]
AUC0-∞ ([1]; 200 mg/kg IV): 476 µg·h/mL | CL ([1]; 200 mg/kg IV): 7 mL/min/kg | Vz ([1]; 200 mg/kg IV): 0.2 L/kg | Cmin [1, 3]: 19000 ng/mL | t1/2 [1, 4]: 19.8 min | % F [1]: 41% | AUC0-∞ ([1]; 200 mg/kg PO): 193 µg·h/mL | Cmax ([1]; 200 mg/kg PO): 153000 ng/mL | Tmax ([1]; 200 mg/kg PO): 37.8 min | Cmin [1, 5]: 1000 ng/mL | t1/2 [1, 6]: 35.4 min | AUC0-∞ fold change (printed in brackets under the PO AUC) ([1]; 200 mg/kg PO, reference not given, apparently vs 4-hydroxybutyric acid, sodium salt): (+1.1X)
